Assay results taken from patent US20070117743A1, “New antitumoral compounds” (priority 2003, published 2007).

Legend:
Format in all cases: cell-based, human
A-549 = experiment: SRB colorimetric assay of cell growth and viability, A-549; conditions: A-549, 48 hours exposure; for GI50: read-out: GI50 A-549; for CC50: read-out: LC50 A-549
SK-MEL-28 = experiment: SRB colorimetric assay of cell growth and viability, SK-MEL-28; conditions: MEL-28, 48 hours exposure; for CC50: read-out: LC50 MEL-28
HT-29 = experiment: SRB colorimetric assay of cell growth and viability, HT-29; conditions: HT-29, 48 hours exposure; for GI50: read-out: GI50 HT-29; for CC50: read-out: LC50 HT-29
LoVo = experiment: SRB colorimetric assay of cell growth and viability, LoVo; conditions: LOVO, 48 hours exposure; for CC50: read-out: LC50 LOVO
LoVo-Dox = experiment: SRB colorimetric assay of cell growth and viability, LoVo-Dox; conditions: LOVO-DOX, 48 hours exposure; for CC50: read-out: LC50 LOVO-DOX
Summary of the method: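 Cells in RPMI 1640 with 10% FBS were seeded at 5×10^3 per well and left 18 hours drug-free before compounds (10 to 10^−8 μg/mL in DMSO:EtOH:PBS 0.5:0.5:99) were added for 48 hours. TCA-fixed cells were stained with SRB and read at 490 nm; triplicate wells gave GI, TGI and LC.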

DU-145 = experiment: SRB colorimetric assay of cell growth and viability, DU-145; conditions: DU-145; 48 hours exposure
SK-BR-3 = experiment: SRB colorimetric assay of cell growth and viability, SK-BR-3; conditions: SK-BR-3; 48 hours exposure
IGROV-1 = experiment: SRB colorimetric assay of cell growth and viability, IGROV-1; conditions: IGROV; 48 hours exposure
IGROV-ET = experiment: SRB colorimetric assay of cell growth and viability, IGROV-ET; conditions: IGROV-ET, 48 hours exposure; for CC50: read-out: LC50 IGROV-ET
HeLa = experiment: SRB colorimetric assay of cell growth and viability, HeLa; conditions: HELA, 48 hours exposure; for CC50: read-out: LC50 HELA
HeLa-APL = experiment: SRB colorimetric assay of cell growth and viability, HeLa-APL; conditions: HELA-APL, 48 hours exposure; for CC50: read-out: LC50 HELA-APL
K-562 = experiment: SRB colorimetric assay of cell growth and viability, K-562; conditions: K-562, 48 hours exposure; for CC50: read-out: LC50 K-562
PANC-1 = experiment: SRB colorimetric assay of cell growth and viability, PANC-1; conditions: PANC-1, 48 hours exposure; for CC50: read-out: LC50 PANC-1

SMILES	TGI A-549 (A-549)	GI50 (A-549)	CC50 (A-549)	GI50 (SK-MEL-28)	TGI MEL-28 (SK-MEL-28)	CC50 (SK-MEL-28)	TGI HT-29 (HT-29)	GI50 (HT-29)	CC50 (HT-29)	GI50 (LoVo)	TGI LOVO (LoVo)	CC50 (LoVo)	GI50 (LoVo-Dox)	TGI LOVO-DOX (LoVo-Dox)	CC50 (LoVo-Dox)	GI50 (DU-145)	LC50 (concentration causing 50% net cell kill) (DU-145)	TGI DU-145 (DU-145)	GI50 (SK-BR-3)	LC50 (SK-BR-3)	other results
C/C=C1\NC(=O)[C@H](Cc2cccc(Cl)c2)NC(=O)[C@@H](C(C)C)NC(=O)[C@@H]([C@@H](C)CC)NC(=O)[C@H](NC(=O)[C@H](NC(=O)[C@H](CCCN)NC(=O)[C@H]2CCCN2C(=O)[C@H](NC(=O)[C@@H](NC(=O)[C@@H](NC(=O)[C@H](NC(=O)CCCC(C)C)C(C)C)[C@@H](C)O)C(C)C)C(C)C)[C@@H](C)CC)[C@@H](C)OC(=O)[C@H](C(C)C)NC1=O [Compound 82, [Phe(3-Cl)^3]-KF]	6.03E−07 Molar	291 nM	1490 nM	297 nM	4.41E−07 Molar	935 nM	1.19E−07 Molar	77.5 nM	187 nM	40.6 nM	8.73E−08 Molar	180 nM	45.3 nM	9.10E−08 Molar	892 nM	209 nM	553 nM	3.40E−07 Molar	58.9 nM	184 nM	TGI SK-BR-3 (SK-BR-3): 1.04E−07 Molar; GI50 (IGROV-1): 69.5 nM; LC50 (concentration causing 50% net cell killing) (IGROV-1): 182 nM; TGI IGROV (IGROV-1): 1.13E−07 Molar; GI50 (IGROV-ET): 110 nM; TGI IGROV-ET (IGROV-ET): 2.20E−07 Molar; CC50 (IGROV-ET): 576 nM; GI50 (HeLa): 127 nM; TGI HELA (HeLa): 2.75E−07 Molar; CC50 (HeLa): 521 nM; GI50 (HeLa-APL): 192 nM; TGI HELA-APL (HeLa-APL): 3.25E−07 Molar; CC50 (HeLa-APL): 551 nM; GI50 (K-562): 658 nM; TGI K-562 (K-562): 1.02E−06 Molar; CC50 (K-562): 1590 nM; GI50 (PANC-1): 965 nM; TGI PANC-1 (PANC-1): 1.84E−06 Molar; CC50 (PANC-1): 1840 nM
C/C=C1\NC(=O)[C@H](Cc2ccc(Cl)cc2)NC(=O)[C@@H](C(C)C)NC(=O)[C@@H]([C@@H](C)CC)NC(=O)[C@H](NC(=O)[C@H](NC(=O)[C@H](CCCN)NC(=O)[C@H]2CCCN2C(=O)[C@H](NC(=O)[C@@H](NC(=O)[C@@H](NC(=O)[C@H](NC(=O)CCCC(C)C)C(C)C)[C@@H](C)O)C(C)C)C(C)C)[C@@H](C)CC)[C@@H](C)OC(=O)[C@H](C(C)C)NC1=O [Compound 83, [Phe(4-Cl)^3]-KF]	3.62E−07 Molar	221 nM	593 nM	206 nM	3.40E−07 Molar	561 nM	8.24E−08 Molar	36.8 nM	172 nM	30.3 nM	6.27E−08 Molar	165 nM	38.2 nM	7.81E−08 Molar	1840 nM	83 nM	461 nM	2.07E−07 Molar	34.2 nM	155 nM	TGI SK-BR-3 (SK-BR-3): 5.29E−08 Molar; GI50 (IGROV-1): 37.1 nM; LC50 (concentration causing 50% net cell killing) (IGROV-1): 143 nM; TGI IGROV (IGROV-1): 7.69E−08 Molar; GI50 (IGROV-ET): 65.2 nM; TGI IGROV-ET (IGROV-ET): 1.21E−07 Molar; CC50 (IGROV-ET): 587 nM; GI50 (HeLa): 51.9 nM; TGI HELA (HeLa): 2.00E−07 Molar; CC50 (HeLa): 475 nM; GI50 (HeLa-APL): 96.5 nM; TGI HELA-APL (HeLa-APL): 2.28E−07 Molar; CC50 (HeLa-APL): 470 nM; GI50 (K-562): 333 nM; TGI K-562 (K-562): 5.08E−07 Molar; CC50 (K-562): 1130 nM; GI50 (PANC-1): 658 nM; TGI PANC-1 (PANC-1): 1.07E−06 Molar; CC50 (PANC-1): 1750 nM
